Results reported in patent US20250319055A1, “COMPOSITIONS FOR TREATING GENITAL HERPES AND METHODS OF THEIR USE” (priority 2024, published 2025).
Values after ≈ are worked out from the molar mass of the structure shown. Read-outs that look alike come from different tables or passages of the source.

Tests used:
[1] = test system: HSV-2 MS in HEK293-RyR1 cells; assay: HSV-2 cytopathic effect (CPE) inhibition assay, crystal violet staining; assay type: cell-based, Herpes Simplex Virus 2, strain MS; conditions: for IC50: Human alphaherpesvirus 2, 72 h, read-out: IC50, CPE inhibition
Experimental: HSV-2 infection was established in HEK293-RyR1 cells by testing three different multiplicities of infection (MOI) as part of the development of the CPE inhibition assay. An inhibitor of HSV-2 was incubated with cells and subsequently infected with HSV-2 at three different MOIs. Cells-only and virus-only controls were included. Cells were observed daily to monitor CPE progression, and the incubation was allowed to continue until sufficient CPE of 60-80% is observed in the virus-only controls. CPE was quantified via crystal violet staining and results given as % inhibition and IC50 values, 50% of the maximum inhibitory dosage of the test article.
The virus was Herpes Simplex Virus 2, strain MS, lot 7172020, at MOI of 0.01 (ATCC, Catalog #VR-540). HEK293-RyR1 cell line was obtained from Kerafast (Cat. #EUR301). Growth medium was DMEM (High Glucose) supplemented with 10% FBS, 2 mM L-Glutamine, 1% Pen/Strep, 100 µg/ml Hygromycin. Incubation medium was DMEM (High Glucose) supplemented with 2% FBS, 2 mM L-Glutamine, 1% Pen/Strep. Infection medium was DMEM (High Glucose) supplemented with 2 mM L-Glutamine, 1% Pen/Strep. Acyclovir (as a control HSV-2 MS inhibitor) was stored at cell culture grade water (Ultrapure DNAse/RNase free distilled water, Thermo Scientific Cat. 10977015) and tested at concentrations of 10, 3.2, 1.0, 0.32, 0.10, 0.032, 0.010, 0.0032 50, 25, 12.5, 6.25, 3.125, 1.5625, 0.78125, 0.3906 100, 50, 25, 12.5, 6.25, 3.125, 1.5625, 0.78125 mg/ml. Carbachol (a Calcium agonist), obtained from Fisher Scientific (ASL0667403) was stored in cell culture-grade water and tested at concentrations of 333, 166.65, 83.325, 41.6625 mg/ml. […]
HSV-2 MS was prepared at the specific MOI in infection medium and added to the acyclovir/TA-containing wells in a dilution block. […] Plates were monitored daily to observe CPE levels. […]
After one hour, plates were washed with tap water and blotted on absorbent paper. Plates were allowed to air dry, and the absorbance of each well was read at 570 nm with a plate reader.
Absorbance values were exported into Excel. […]

[2] = test system: HSV-2 mediated calcium flux in HEK293-RyR1 cells; assay: Calcium flux assay with Fluo-4 Direct Calcium Assay Kit; assay type: cell-based; conditions: for RFU drop in calcium flux: FIG. 6A-6B legend; for maximum average ΔRFU: treated cells minus cells only, HSV-2 MOI 0.01
Experimental: The Fluo-4 Direct™ Calcium Assay Kit was be used to assess calcium response in RyR1-expressing cells treated with a calcium agonist (Carbachol) or infected with HSV-2 MS at an MOI of 0.01. For the virus-infected cells, procedures as described above were followed but with a 96-well black plate.
Cells were seeded in 100 μL of incubation medium in black 96-well plates coated with poly-D-lysine at 5.0E+04 cells per well and incubated at 37° C. with 5% CO2 overnight (16-20 hours). […]
A 2× Fluo-4 Direct™ calcium reagent loading solution with 5 mM probenecid was prepared by adding 10 mL of Fluo-4 Direct™ calcium assay buffer and 200 μL of the 250 mM stock solution of probenecid to one bottle of 2× Fluo-4 Direct™ calcium reagent (labeled Component A). The solution was vortexed and allowed to sit for five minutes for complete dissolution. […]
The fluorescence of each well was measured directly after the addition of carbachol with the Biotek Cytation 5 plate reader using the fluorescence reader settings for excitation at 494/10 nm and emission at 520/10 nm. The fluorescence measurements in relative fluorescence units (RFU) were recorded and exported to Excel.
ΔRFU is given in relative fluorescent units (RFU) as the maximum response (TA or virus treated cells) minus the minimum response (cells only).
On day 3, a 250 mM stock solution of probenecid was prepared by adding 1 mL of Fluo-4 Direct™ calcium assay buffer (labeled Component C) to each 77 mg vial of water-soluble probenecid. The vial was vortexed until dissolved.
Plated cells were removed from the incubator. TA/virus dilutions were removed and 100 μL of incubation medium was added to the plate. Then, 100 μL of 2× Fluo-4 Direct™ calcium reagent loading solution was added. Plates were incubated for 30 minutes at 37° C. with 5% CO2 followed by 30 minutes at room temperature. Carbachol dilutions (100 μL) were added to the plate that contains only cells as a positive control.

HSV-2 genital herpes = assay: Treatment of HSV-2 genital herpes in human subjects; assay type: in vivo
From the text: An otherwise healthy person presented pain with urination and a solitary sore on the vulva. It was initially unclear by visible inspection if the solitary sore was herpes or a shave injury. […] The patient reported Pain 7/10, and worse with urination. […] The patient was given the formulation to use at home (two applications per day). The patient was also offered a prescription for 1 gram of Valtrex to be taken twice a day.
As a comparison, before the date of the patient's treatment, typical otherwise healthy female patients of this same age presenting similar herpes sores are given a prescription for Valtrex and take up to two weeks to resolve their herpes ulcers.
A second human subject with a long history of HSV-2 who has previously taken oral Valtrex™ (Valacyclovir) to resolve past HSV-2 ulcerations was administered a representative pharmaceutical composition of this disclosure as described in Example 1. The subject has previously resolved HSV-2 ulcerations in 5-7 days after outbreak when administered Valtrex. The subject was administered the representative tetracaine composition twice a day for two days at which point the subject's lesions were completely re-epithelialized and the pain was reduced to 0/10. Before treatment, the subject reported pain at 5/10 at max. […]

[3] = base form versus salt form (Miller et al. 1993); cited from earlier work
[4] = at the highest concentration tested

Row | Structure (SMILES) | IC50 ([1]; HSV-2 MOI 0.01, 5.0×10^4 HEK293-RyR1 cells per well, day 3) | RFU drop in calcium flux [2] | maximum average ΔRFU [2, 4] | time to resolve HSV-2 ulcerations after outbreak (HSV-2 genital herpes; person, past outbreaks, oral) | time to resolve herpes ulcers (HSV-2 genital herpes; typical otherwise healthy female patients of same age with similar herpes sores, prescription) | IC50 [1] | cell morphology of treated cells ([1]; compared to cells only, virus-only and Acyclovir-treated cells, day 3 (FIG. 5D)) | fold higher average ΔRFU than Acyclovir [2, 4] | flux through the dermis [3]
1 | Nc1nc2c(ncn2COCCO)c(=O)[nH]1 [Acyclovir] | 0.0457 mg/mL (≈ 0.203 mM) | about 2000 RFU | −1801.6 RFU |  |  |  |  |  | 
2 | CC(C)[C@H](N)C(=O)OCCOCn1cnc2c(=O)[nH]c(N)nc21 [Valtrex] |  |  |  | 5 to 7 days | up to two |  |  |  | 
3 | CCCCNc1ccc(C(=O)OCCN(C)C)cc1 [Tetracaine, 2-(dimethylamino)ethyl 4-(butylamino)benzoate] |  | 4000 RFU | −6527.9 RFU |  |  | 94.6 mg/mL (≈ 358 mM) | Abnormal cell morphology | 3.6 fold | fluxes more readily than the salt form
